What was measured:
GCN2 = target: T1, GCN2 (Homo sapiens, UniProt Q9P2K8); experiment: ISR kinase cell-free biochemical assay (Carna), GCN2; details: ATP 150 µM
T1 construct: purchased Carna 05-153
Method: (§1) In brief, 26 was dissolved in DMSO and serially diluted 3-fold to generate concentrations ranging from 10 µM to 0.2 nM in a 384-well plate using a TECAN EVO200 automated liquid handler. 10 nL stock solution was transferred into each well of a 384well assay plate by an Echo550 and an equivalent volume of DMSO was added to the control wells. To each assay well, recombinant protein was suspended in 20 µL reaction buffer (listed below) and incubated at 25 °C for 1.5 h while shaking at 1250 rpm. Following incubation, 10 µL of a FRET dilution buffer including 20 mM EDTA and 4 nM Tb-anti-peIF2a [pSer51] (Invitrogen, Cat# PV4815) was added to each well and incubated at 25 °C for 2 h while shaking at 600 rpm in the dark. Analysis was performed using an Envision Microplate Reader (PerkinElmer).

PKR = target: T2, PKR (Homo sapiens, UniProt P19525); experiment: ISR kinase cell-free biochemical assay (Carna), PKR; details: ATP 6 µM
T2 construct: purchased Carna 05-156
Method: as §1

Kasumi-1 (FLT3wt) = experiment: Cell viability assay, Kasumi-1; assay type: cell-based; details: Homo sapiens
MOLM-13 (FLT3-ITD) = experiment: Cell viability assay, MOLM-13; assay type: cell-based; details: Homo sapiens
[1] = PK of 26 in plasma and pancreas of BALB/c nude mice; assay type: in vivo, mouse; details: 0.3 to 30 mg/kg single oral gavage
Method: For PK analysis of pyrrolopyrimidine analogs in mouse, rat, and dog plasma, the oral formulation was prepared as a solution containing 20% (w/v) Captisol in 25 mM NaH2PO4 buffer (pH 2). Compounds were administered orally by gavage at 10 mg/kg to female CD1 mice. After dosing, plasma samples were collected to characterize the PK profiles at 0.25, 0.5, 1, 2, 4, 8, 12 and 24 h post-dose. The plasma concentration of compound was determined by protein precipitation with acetonitrile and liquid chromatography with mass spectrometric detection (LC-MS/MS). Parameters were estimated using Phoenix (WinNonlin) pharmacokinetic software version 6.1.0 using a non-compartmental approach consistent with the oral route of administration. PK analysis of 26 in plasma and pancreas followed a similar analytical method as above, with minor modifications. Compound 26 was suspended in a vehicle consisting of 0.5% methylcellulose (400 cP) and 0.1% Tween80 in water and administered to BALB/c nude mice by oral gavage at 0.3, 1, 3, 10, 30 mg/kg. Plasma and pancreas were sampled from 5 mice per group following a single oral administration at 1, 4, 8, 12, 24 h post-dose.

FLT3 = target: T3, FLT3 (Homo sapiens, UniProt P36888); experiment: Radiometric in vitro kinase activity assay, FLT3; assay type: biochemical; details: wild-type FLT3, radiometric, up to 10 μM
T3 sequence (P36888 27-993): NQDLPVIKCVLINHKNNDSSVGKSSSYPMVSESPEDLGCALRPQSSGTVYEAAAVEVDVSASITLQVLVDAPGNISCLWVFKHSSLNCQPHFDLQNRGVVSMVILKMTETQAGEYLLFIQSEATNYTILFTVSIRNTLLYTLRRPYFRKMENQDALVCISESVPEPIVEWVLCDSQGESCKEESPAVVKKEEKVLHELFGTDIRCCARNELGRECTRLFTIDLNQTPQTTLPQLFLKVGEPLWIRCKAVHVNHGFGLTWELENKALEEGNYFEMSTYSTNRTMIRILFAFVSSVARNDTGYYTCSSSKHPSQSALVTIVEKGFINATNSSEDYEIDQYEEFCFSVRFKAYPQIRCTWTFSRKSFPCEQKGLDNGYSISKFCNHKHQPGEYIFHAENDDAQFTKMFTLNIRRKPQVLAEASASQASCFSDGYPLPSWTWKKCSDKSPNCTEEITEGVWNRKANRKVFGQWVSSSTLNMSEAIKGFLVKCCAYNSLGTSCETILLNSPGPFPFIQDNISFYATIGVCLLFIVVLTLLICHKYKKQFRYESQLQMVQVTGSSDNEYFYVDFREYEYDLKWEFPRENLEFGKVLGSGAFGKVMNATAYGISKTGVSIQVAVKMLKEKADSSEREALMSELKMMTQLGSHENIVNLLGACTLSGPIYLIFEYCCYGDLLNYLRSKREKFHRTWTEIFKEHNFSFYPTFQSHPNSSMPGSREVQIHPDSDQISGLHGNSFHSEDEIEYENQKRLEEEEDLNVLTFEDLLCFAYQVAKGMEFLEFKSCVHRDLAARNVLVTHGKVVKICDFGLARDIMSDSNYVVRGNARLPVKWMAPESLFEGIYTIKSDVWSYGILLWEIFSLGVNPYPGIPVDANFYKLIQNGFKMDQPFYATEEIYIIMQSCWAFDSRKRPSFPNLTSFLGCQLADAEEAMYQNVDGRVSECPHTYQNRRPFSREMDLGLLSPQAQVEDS

MOLM-16 (FLT3wt) = experiment: Cell viability assay, MOLM-16; assay type: cell-based; details: Homo sapiens, MOLM16

T1 sequence (Q9P2K8 whole entry): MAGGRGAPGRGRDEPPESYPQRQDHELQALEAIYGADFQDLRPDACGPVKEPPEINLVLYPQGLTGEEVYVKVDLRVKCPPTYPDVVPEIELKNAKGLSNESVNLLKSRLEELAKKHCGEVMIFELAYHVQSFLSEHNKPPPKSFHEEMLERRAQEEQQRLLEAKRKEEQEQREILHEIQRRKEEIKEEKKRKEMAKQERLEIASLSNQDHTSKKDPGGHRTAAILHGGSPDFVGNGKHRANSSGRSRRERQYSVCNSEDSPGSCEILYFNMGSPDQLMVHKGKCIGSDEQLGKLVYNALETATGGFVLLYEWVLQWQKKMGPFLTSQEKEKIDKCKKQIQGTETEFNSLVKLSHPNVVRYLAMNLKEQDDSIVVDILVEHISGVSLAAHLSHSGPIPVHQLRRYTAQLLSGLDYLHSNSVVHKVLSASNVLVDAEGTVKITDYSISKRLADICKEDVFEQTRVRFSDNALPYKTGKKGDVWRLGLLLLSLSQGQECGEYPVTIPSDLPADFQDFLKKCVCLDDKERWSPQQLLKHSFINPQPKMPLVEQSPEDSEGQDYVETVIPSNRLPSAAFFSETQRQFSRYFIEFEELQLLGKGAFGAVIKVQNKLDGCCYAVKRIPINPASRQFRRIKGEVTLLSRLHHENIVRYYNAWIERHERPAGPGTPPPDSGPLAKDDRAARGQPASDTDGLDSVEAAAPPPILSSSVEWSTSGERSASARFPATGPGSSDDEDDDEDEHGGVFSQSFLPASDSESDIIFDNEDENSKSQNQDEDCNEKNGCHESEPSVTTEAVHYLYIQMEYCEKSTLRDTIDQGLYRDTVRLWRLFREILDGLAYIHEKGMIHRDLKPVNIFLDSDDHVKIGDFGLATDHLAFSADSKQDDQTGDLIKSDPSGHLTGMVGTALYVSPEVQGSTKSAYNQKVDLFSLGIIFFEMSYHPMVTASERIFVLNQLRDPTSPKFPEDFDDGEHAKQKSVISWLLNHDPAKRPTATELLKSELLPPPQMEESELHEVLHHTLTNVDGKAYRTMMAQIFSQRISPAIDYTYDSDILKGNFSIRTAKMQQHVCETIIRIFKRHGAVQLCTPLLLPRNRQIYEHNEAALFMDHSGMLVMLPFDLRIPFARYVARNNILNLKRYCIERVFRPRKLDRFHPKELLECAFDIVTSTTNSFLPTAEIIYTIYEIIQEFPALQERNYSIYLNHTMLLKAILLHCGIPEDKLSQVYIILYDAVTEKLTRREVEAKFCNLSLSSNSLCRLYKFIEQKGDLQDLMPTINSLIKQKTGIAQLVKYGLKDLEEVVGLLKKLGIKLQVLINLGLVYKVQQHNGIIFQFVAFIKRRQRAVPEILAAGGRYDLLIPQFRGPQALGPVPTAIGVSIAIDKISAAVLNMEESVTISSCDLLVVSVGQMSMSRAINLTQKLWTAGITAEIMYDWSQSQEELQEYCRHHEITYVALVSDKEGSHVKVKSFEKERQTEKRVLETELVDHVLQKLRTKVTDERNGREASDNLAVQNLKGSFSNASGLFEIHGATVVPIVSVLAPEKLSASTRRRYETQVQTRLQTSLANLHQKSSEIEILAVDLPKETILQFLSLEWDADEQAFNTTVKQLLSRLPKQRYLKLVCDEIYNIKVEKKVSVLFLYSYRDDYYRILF
T2 sequence (P19525 whole entry): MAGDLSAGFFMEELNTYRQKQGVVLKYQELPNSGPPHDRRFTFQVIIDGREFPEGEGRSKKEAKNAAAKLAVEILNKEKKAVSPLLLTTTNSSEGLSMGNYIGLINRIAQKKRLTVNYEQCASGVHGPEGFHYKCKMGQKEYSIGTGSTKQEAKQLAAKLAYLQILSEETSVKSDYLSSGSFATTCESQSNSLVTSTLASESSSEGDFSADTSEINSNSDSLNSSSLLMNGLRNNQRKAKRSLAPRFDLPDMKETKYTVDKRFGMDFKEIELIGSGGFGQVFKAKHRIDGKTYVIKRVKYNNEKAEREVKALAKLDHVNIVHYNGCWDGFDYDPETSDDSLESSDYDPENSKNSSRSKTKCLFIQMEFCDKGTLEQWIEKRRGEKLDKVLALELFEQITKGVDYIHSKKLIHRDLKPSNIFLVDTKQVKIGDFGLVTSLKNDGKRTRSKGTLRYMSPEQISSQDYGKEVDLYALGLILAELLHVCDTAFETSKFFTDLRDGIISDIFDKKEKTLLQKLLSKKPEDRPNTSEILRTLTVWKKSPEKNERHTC

With `Cc1nc(N)c2c(-c3ccc(NC(=O)[C@H](O)c4cccc(C(F)(F)F)c4)cc3C)cn(C)c2n1` [Compound 26] the IC50 (GCN2) was > 10 µM, the IC50 (PKR) was > 10 µM and the IC50 (Kasumi-1 (FLT3wt)) was > 10 µM. For the same compound, the IC50 (MOLM-13 (FLT3-ITD)) was 0.311 µM, the “exposure in plasma and pancreas” value [1] was “dose-proportionate exposure” and the IC50 (FLT3) was > 1 µM. The IC50 (MOLM-16 (FLT3wt)) was > 10 µM.
